Measured values taken from patent publication US11505528B2, “Inhibitors of microbially induced amyloid” (Axial Therapeutics, Inc., priority 2017, dated 2022).
Read-outs that look alike come from different tables or passages of the source.

Legend:
Format in all cases: biochemical
human α-synuclein = target: T1, human α-synuclein (Homo sapiens, UniProt P37840); experiment: Thioflavin T cell-free assay of α-synuclein aggregation; settings: α-synuclein 50 μM, compounds at 20-50 μM, data from 36 hours; for Inhibition of Aggregation, αSyn: ThT fluorescence, negative = potentiation
T1 construct: the full-length gene for untagged human α-synuclein was inserted; made in house; host or cells: E. coli BL21 (DE3)

E. coli CsgA = target: T2, E. coli CsgA (Escherichia coli, UniProt P28307); experiment: Thioflavin T cell-free assay of CsgA aggregation
T2 construct: 6xHis (C); made in house; host or cells: E. coli NEB 3016 slyD::kan

[1] = target: T3, α-synuclein seeded by E. coli CsgA (Homo sapiens, UniProt P37840); experiment: Thioflavin T cell-free assay of CsgA-seeded α-synuclein aggregation
T3 construct: the full-length gene for untagged human α-synuclein was inserted; made in house; host or cells: α-synuclein: E. coli BL21 (DE3); CsgA: E. coli NEB 3016 slyD::kan

[2] = read-out: Inhibition of Aggregation, CsgA
[3] = read-out: Inhibition of Aggregation, CsgA (compound activity range)
[4] = read-out: Inhibition of Aggregation, CsgA-seeded αSyn
[5] = read-out: Inhibition of Aggregation, CsgA-seeded αSyn (compound activity range)

T2 sequence (P28307 23-151): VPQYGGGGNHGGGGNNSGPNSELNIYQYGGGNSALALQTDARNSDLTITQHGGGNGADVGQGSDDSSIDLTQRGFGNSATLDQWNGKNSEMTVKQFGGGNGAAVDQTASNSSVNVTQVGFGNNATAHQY

SMILES | Inhibition of Aggregation, αSyn (human α-synuclein) | Inhibition of Aggregation, αSyn (compound activity range) (human α-synuclein) | inhibition at 20 µM (E. coli CsgA; [2]) | inhibition at 20 µM (E. coli CsgA; [3]) | inhibition at 50 µM [1, 4] | inhibition at 50 µM [1, 5]
O=C(Nc1cc(O)c(O)c(O)c1)c1c(-c2cc(O)c(O)c(O)c2)[nH]c2cc(O)c(O)c(O)c2c1=O [Compound 44, 5,6,7-trihydroxy-4-oxo-N,2-bis(3,4,5-trihydroxyphenyl)-1,4-dihydroquinoline-3-carboxamide] | 98% | (+++) ((+++) is greater than 60% inhibition) | 64% | > 60% | > 90% | > 60%
COc1cc2[nH]cc(C(=O)Nc3cccc(O)c3)c(=O)c2c(OC)c1OC [Compound 28, N-(3-hydroxyphenyl)-5,6,7-trimethoxy-4-oxo-1,4-dihydroquinoline-3-carboxamide] | 20% | (+) ((+) is between 10% to 30% inhibition) | -6% | -10 to 10% | < -50% | < -10%
O=C(Nc1sc2c(c1C(=O)Nc1ccccc1)CCCC2)c1cc(O)c(O)c(O)c1 [Compound 8, N-phenyl-2-(3,4,5-trihydroxybenzamido)-4,5,6,7-tetrahydrobenzo[b]thiophene-3-carboxamide] | 18% | (+) ((+) is between 10% to 30% inhibition) | 13% | 10 to 30% |  | 
COc1cc(OC)c2c(=O)c(C(=O)Nc3ccccc3O)c[nH]c2c1 [Compound 41, N-(2-hydroxyphenyl)-5,7-dimethoxy-4-oxo-1,4-dihydroquinoline-3-carboxamide] | 17% | (+) ((+) is between 10% to 30% inhibition) | 18% | 10 to 30% |  | 
COc1cc(OC)c2c(=O)c(C(=O)Oc3cc(OC)c(OC)c(OC)c3)c[nH]c2c1 [Compound 24, 3,4,5-trimethoxyphenyl 5,7-dimethoxy-4-oxo-1,4-dihydroquinoline-3-carboxylate] |  |  | -1% | -10 to 10% | -27% | < -10%
O=C(Nc1ccccc1)c1c[nH]c2cc(O)c(O)c(O)c2c1=O [Compound 33, 5,6,7-trihydroxy-4-oxo-N-phenyl-1,4-dihydroquinoline-3-carboxamide] | 92% | (+++) ((+++) is greater than 60% inhibition) | 59% | 30 to 60% |  | 
COc1cc(OC)c2c(=O)c(C(=O)Nc3cccc(O)c3)c[nH]c2c1 [Compound 26, N-(3-hydroxyphenyl)-5,7-dimethoxy-4-oxo-1,4-dihydroquinoline-3-carboxamide] | 24% | (+) ((+) is between 10% to 30% inhibition) | 8% | -10 to 10% | < -50% | < -10%
O=C(Nc1sc2c(c1C(=O)Nc1cc(O)cc(O)c1)CCCC2)c1cc(O)c(O)c(O)c1 [Compound 6, N-(3,5-dihydroxyphenyl)-2-(3,4,5-trihydroxybenzamido)-4,5,6,7-tetrahydrobenzo[b]thiophene-3-carboxamide] | 36% | (++) ((++) is between 30% to 60% inhibition) | 40% | 30 to 60% | > 90% | > 60%
CN(C(=O)c1c[nH]c2cc(O)cc(O)c2c1=O)c1cc(O)c(O)c(O)c1 [Compound 42, 5,7-dihydroxy-N-methyl-4-oxo-N-(3,4,5-trihydroxyphenyl)-1,4-dihydroquinoline-3-carboxamide] | 98% | (+++) ((+++) is greater than 60% inhibition) | 114% | > 60% | > 90% | > 60%
O=C(Nc1cccc(O)c1)c1c[nH]c2cc(O)c(O)c(O)c2c1=O [Compound 32, 5,6,7-trihydroxy-N-(3-hydroxyphenyl)-4-oxo-1,4-dihydroquinoline-3-carboxamide] | 48% | (++) ((++) is between 30% to 60% inhibition) | 53% | 30 to 60% | > 90% | > 60%
COc1cc(NC(=O)c2c[nH]c3cc(OC)c(OC)c(OC)c3c2=O)cc(OC)c1OC [Compound 19, 5,6,7-trimethoxy-4-oxo-N-(3,4,5-trimethoxyphenyl)-1,4-dihydroquinoline-3-carboxamide] | 29% | (+) ((+) is between 10% to 30% inhibition) | 18% | 10 to 30% | 14% | 10 to 30%
O=C(Nc1cc(O)c(O)c(O)c1)c1c[nH]c2cc(O)c(O)c(O)c2c1=O [Compound 20, 5,6,7-trihydroxy-4-oxo-N-(3,4,5-trihydroxyphenyl)-1,4-dihydroquinoline-3-carboxamide] |  |  | 61% | > 60% | 11% | 10 to 30%
COc1cc(OC(=O)c2c[nH]c3cc(OC)c(OC)c(OC)c3c2=O)cc(OC)c1OC [Compound 23, 3,4,5-trimethoxyphenyl 5,6,7-trimethoxy-4-oxo-1,4-dihydroquinoline-3-carboxylate] |  |  | -4% | -10 to 10% | -22% | < -10%
O=C(Nc1sc2c(c1C(=O)Nc1cc(O)c(O)c(O)c1)CCCC2)c1cc(O)c(O)c(O)c1 [Compound 2, 2-(3,4,5-trihydroxybenzamido)-N-(3,4,5-trihydroxyphenyl)-4,5,6,7-tetrahydrobenzo[b]thiophene-3-carboxamide] | 93% | (+++) ((+++) is greater than 60% inhibition) | 45% | 30 to 60% | 63% | > 60%
O=C(Nc1cccc(O)c1)c1c[nH]c2cc(O)cc(O)c2c1=O [Compound 48, 5,7-dihydroxy-N-(3-hydroxyphenyl)-4-oxo-1,4-dihydroquinoline-3-carboxamide] | 37% | (++) ((++) is between 30% to 60% inhibition) | -2% | -10 to 10% | > 90% | > 60%
COc1cc(OC)c2c(=O)c(C(=O)Nc3ccccc3)c[nH]c2c1 [Compound 25, 5,7-dimethoxy-4-oxo-N-phenyl-1,4-dihydroquinoline-3-carboxamide] | 17% | (+) ((+) is between 10% to 30% inhibition) | -150% | < -10% |  | 
COc1cc(OC)c2c(=O)c(C(=O)Nc3cc(OC)c(OC)c(OC)c3)c[nH]c2c1 [Compound 21, 5,7-dimethoxy-4-oxo-N-(3,4,5-trimethoxyphenyl)-1,4-dihydroquinoline-3-carboxamide] | −1% | (−) ((−) is between −10% to 10% inhibition) | 4% | -10 to 10% |  | 
COc1cc(NC(=O)c2c(-c3cc(OC)c(OC)c(OC)c3)[nH]c3cc(OC)c(OC)c(OC)c3c2=O)cc(OC)c1OC [Compound 40, 5,6,7-trimethoxy-4-oxo-N,2-bis(3,4,5-trimethoxyphenyl)-1,4-dihydroquinoline-3-carboxamide] | −12% | (−−) ((−−) is less than −10% inhibition) | 15% | 10 to 30% |  | 
COc1cc(NC(=O)c2c(N)sc3c2CCCC3)cc(OC)c1OC [Compound 14, 2-amino-N-(3,4,5-trimethoxyphenyl)-4,5,6,7-tetrahydrobenzo[b]thiophene-3-carboxamide] | 3% | (−) ((−) is between −10% to 10% inhibition) |  |  | 74% | > 60%
O=C(Nc1ccccc1O)c1c[nH]c2cc(O)c(O)c(O)c2c1=O [Compound 43, 5,6,7-trihydroxy-N-(2-hydroxyphenyl)-4-oxo-1,4-dihydroquinoline-3-carboxamide] | 63% | (++) ((++) is between 30% to 60% inhibition) | 90% | > 60% |  | 
COc1cc(NC(=O)c2c(NC(=O)c3cc(OC)c(OC)c(OC)c3)sc3c2CCCC3)cc(OC)c1 [Compound 5, N-(3,5-dimethoxyphenyl)-2-(3,4,5-trimethoxybenzamido)-4,5,6,7-tetrahydrobenzo[b]thiophene-3-carboxamide] | 22% | (+) ((+) is between 10% to 30% inhibition) | -4% | -10 to 10% |  | 
O=C(Nc1ccc(O)cc1)c1c[nH]c2cc(O)c(O)c(O)c2c1=O [Compound 38, 5,6,7-trihydroxy-N-(4-hydroxyphenyl)-4-oxo-1,4-dihydroquinoline-3-carboxamide] | 14% | (+) ((+) is between 10% to 30% inhibition) |  |  |  | 
